# From patent US7651692B2, “Use of extracts of the plant Litchi chinensis sonn” (Cognis France S.A., priority 2001, dated 2010)
# Like-named read-outs stand apart in the source and are kept apart here.
# What was measured:
# Human plasmin = Human plasmin (Homo sapiens, UniProt P00747); experiment: Plasmin inhibition after addition of the synthetic substrate; assay type: biochemical; details: 50 μg/ml
# Protocol: Thereafter, either synthetic substrate, especially “Val-Leu-paranitroanilide”, a product of Chromogenix, or natural pro-MMP3 obtained from Merck-Eurolab was added to the mixture. In the case of the synthetic substrate, absorption at 405 nm was measured every 5 minutes over a period of 30 minutes and the release of paranitroanilines was thus determined.
# The inhibition of enzymatic activity was tested against a control with no substrate and against a reference substance, more particularly Aprotinine, a product of Sigma.
# human keratinocytes = experiment: Cell protecting effect against UV-B in human keratinocytes cultivated in vitro; assay type: cell-based; details: UV-B 50 mJ/cm^2; 0.001% substance; level in % by comparison with the control
# Protocol: Method: The effect of UV-B radiation was investigated in vitro in keratinocytes by determining the release of the cytoplasm enzyme LDH (lactate dehydrogenase). This enzyme serves as a marker for cell damage.
# To carry out the tests, a defined medium containing fetal calf serum was inoculated with the keratinocytes and the plant extract (diluted with saline solution) was added 72 hours after the inoculation.
# The keratinocytes were then exposed to a dose of UV-B (50 mJ/cm^2-tubes: DUKE FL40E).
# After incubation for another day at 37° C./5% CO2, the LDH content in the supernatant was determined. The LDH (lactate dehydrogenase) content was determined by an enzyme reaction (kit used to determine LDH levels from Roche). The number of adhering keratinocytes was determined (after trypsin treatment) with a particle counter.
# [1] = DPPH Test (chemical test, activity towards free radicals)
# Excerpt: (§1) The first test substrate selected was diphenyl picryl hydrazyl (DPPH), a purple-red colored stable radical which changes into its colorless leuco derivative on contact with radical trappers. The change of color can be followed photometrically. The test results are set out in Table 3 (DPPH Test). In another test, the hydroxylation of salicylic acid by hydroxyl radicals (from the reaction of hydrogen peroxide with iron(III) ions and EDTA) was investigated as a reference system. This reaction can also be photometrically investigated because the hydroxylation product is reddish in color. The influence of the extracts on the formation of hydroxysalicylic acid was measured at an optical density of 490 nm. In a third and final test, xanthine oxidase was selected as the test system. Under oxidative tress, the enzyme converts purine bases, for example adenine or guanine, into […]. The oxygen radicals intermediately formed can be detected by reaction with luminol (via the luminescence) and quantitatively determined. The luminescence output diminishes in the presence of substances with radical-trapping properties.
# [2] = Luminol + microperoxydase (biochemical test)
# [3] = Fenton's reaction: hydroxylation of salicylic acid by hydroxyl radicals; details: formation of hydroxysalicylic acid, optical density 490 nm
# Excerpt: as §1
# xanthine oxidase = experiment: Luminol Test with xanthine oxidase (biochemical test)
# Excerpt: as §1
# human fibroblasts [4] = assay type: cell-based
# Protocol: Human fibroblasts were inoculated with 10% by weight fetal calf serum in a defined nutrient medium (DMEM=Dulbecco Minimum Essential Medium, a product of Life Technologie S.a.r.l.) and incubated for 24 h at 37° C. in a 5% CO2 atmosphere. The nutrient medium containing fetal calf serum was then replaced by a nutrient medium of DMEM without fetal calf serum. Active substance in the form of the two extracts of the pericarp of Litchi chinensis Sonn. was then added to this nutrient medium in various concentrations.
# elastase = experiment: Inhibition of elastase activity; assay type: biochemical; details: concentration 0.1 % (w/v)
# Protocol: Serine proteases, such as elastase for example, degrade elastin, proteoglycans and collagen and thus weaken the connective tissue. […] The incubation time was 30 mins. at room temperature. The inhibition was followed photometrically at 410 nm; 1′α1-antitrypsin was used as positive standard.
# TIMP-1 = TIMP-1 poured out by fibroblasts; assay type: cell-based, human; details: concentration not printed in this line
# Protocol: (§2) This test is used to evaluate the ability of the litchi extract to reduce the toxic effects of UV-A radiation on human fibroblasts cultivated in vitro. To this end, both the quantity of the enzyme MMP-1 (matrix metalloproteinase) poured out and the quantity of the natural enzyme inhibitor TIMP-1 are determined. UV-A radiation is used in this test because it can penetrate into the dermis and induce oxidative stress which leads to ageing of the skin.
# (§3) To this end, the fibroblasts are cultivated in a precisely defined medium containing fetal calf serum. […] After further incubation for one day at 37° C./5% CO2, the culture medium is replaced by a salt solution and the fibroblasts are exposed to UV-A (15 J/cm^2, lamp: SOL500, Dr. Höhnle. filter: H1, radiometer: Vibert Lourmat). After the exposure, the fibroblasts are incubated for another two days. The MMO-1 and TIMP-1 contents of the supernatant medium are determined with an Amersham test kit (Kit No. RPN2610 and RPN2611). No extract was added to the control.
# MMP-1 = experiment: Inhibition of collagenase synthesis: MMP-1 poured out by fibroblasts; assay type: cell-based, human; details: 0.1 μm
# Protocol: as §2, §3
# [5] = tested on: human leucocytes (neutrophilic granulocytes); experiment: Anti-inflammatory activity: respiratory burst, released oxygen radicals; assay type: cell-based; details: 0.001% by weight
# Protocol: Method: Anti-inflammatory activity was studied on a cell line of human leucocytes (neutrophilic granulocytes). To this end, the cells were incubated with various concentrations of extracts of Example 1 to be tested, after which a respiratory burst was induced by yeast cell extract (“zymosan”) by activation of the cells for 30 mins. with 0.1 ml zymosan. The content of oxygen radicals intermediately formed was determined for 60 seconds by reaction with luminol via the luminescence and quantitatively evaluated. The luminescence yield falls in the presence of substances with radical-trapping properties. The percentage of released radicals was determined against a reference substance (Minocycline—a radical trapper). The results are expressed in % relative to the control. For control purposes, the number of intact cells was determined with a particle counter and is shown in % by comparison with the control.
# human fibroblasts [6] = experiment: Cell protecting effect against UV-A on human fibroblasts cultivated in vitro; assay type: cell-based; details: UV-A 20 J/cm^2; 0.0003% substance; level in % by comparison with the control
# Protocol: Method: To carry out these tests, a defined culture medium containing the fibroblasts is inoculated with foetal calf serum and added to the plant extract (in the defined medium containing 10% fetal calf serum) 72 hours after inoculation.
# After incubation for 48 hours at 37° C./5% CO2, the culture medium was replaced by saline solution (physiological NaCl solution) and the fibroblasts were exposed to a dose of UV-A (365 nm, 20 J/cm^2; tubes: MAZDA FLUOR TFWN40).
# After the exposure to UV-A, the MDA level (malonaldialdehyde level) in the supernatant sodium chloride solution was quantitatively determined by reaction with thiobarbituric acid.
# human MMP-1 = molecular target: T1, human MMP-1 (Homo sapiens, UniProt P03956); experiment: Inhibition of collagenase activity (MMP-1); assay type: biochemical; details: concentration 50 nmol
# T1 sequence (P03956 100-469): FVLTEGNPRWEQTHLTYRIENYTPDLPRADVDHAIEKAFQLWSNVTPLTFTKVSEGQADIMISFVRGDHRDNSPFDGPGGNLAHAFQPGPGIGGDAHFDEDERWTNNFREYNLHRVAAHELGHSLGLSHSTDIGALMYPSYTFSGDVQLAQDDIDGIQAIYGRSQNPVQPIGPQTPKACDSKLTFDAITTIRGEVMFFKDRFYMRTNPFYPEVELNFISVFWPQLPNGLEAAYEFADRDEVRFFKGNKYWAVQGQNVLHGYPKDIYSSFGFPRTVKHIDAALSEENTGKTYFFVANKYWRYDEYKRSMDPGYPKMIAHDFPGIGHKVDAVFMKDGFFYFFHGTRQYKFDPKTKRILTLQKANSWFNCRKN
# Protocol: After exposure to the sun, dermal fibroblasts of elderly people pour out collagenases—also known as matrix metalloprotease (MMP). […] The incubation time was 60 mins. at room temperature. The hydrolysis of the substrate was determined by fluorescence spectrometry at λem=393 nm (λex=328 nm). The […] TIMP-1 (MMP inhibitor occurring naturally in tissue) was used as the comparison standard.
# [7] = After exposure to UV-A (15 J/cm^2)
# Human plasmin, sequence (P00747 581-810 limits assumed): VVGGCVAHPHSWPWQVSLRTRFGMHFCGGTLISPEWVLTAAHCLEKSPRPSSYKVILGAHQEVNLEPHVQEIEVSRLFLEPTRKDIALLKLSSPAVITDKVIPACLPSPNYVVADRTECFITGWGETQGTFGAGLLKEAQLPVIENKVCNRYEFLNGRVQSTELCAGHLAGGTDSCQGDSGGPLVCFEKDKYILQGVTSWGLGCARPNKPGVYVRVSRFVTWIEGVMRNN
# Human plasmin, sequence (P00747 97-580 partner limits assumed): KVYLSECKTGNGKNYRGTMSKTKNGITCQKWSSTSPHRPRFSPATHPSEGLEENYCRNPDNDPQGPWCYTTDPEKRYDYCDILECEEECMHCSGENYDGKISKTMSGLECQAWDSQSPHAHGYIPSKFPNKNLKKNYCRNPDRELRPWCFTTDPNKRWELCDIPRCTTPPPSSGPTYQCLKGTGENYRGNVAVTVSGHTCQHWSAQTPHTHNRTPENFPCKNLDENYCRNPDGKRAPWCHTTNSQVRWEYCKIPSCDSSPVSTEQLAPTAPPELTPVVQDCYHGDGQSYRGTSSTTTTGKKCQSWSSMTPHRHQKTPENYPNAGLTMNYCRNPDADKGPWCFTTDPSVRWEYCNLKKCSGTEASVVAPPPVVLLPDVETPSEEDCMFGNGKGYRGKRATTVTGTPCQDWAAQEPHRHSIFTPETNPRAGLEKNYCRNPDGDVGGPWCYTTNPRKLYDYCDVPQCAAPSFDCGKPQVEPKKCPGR
compound,measurement,setting,value
Aprotinine,% Inhibition compared with the control (plasmin),Human plasmin,100%
CC(=O)Oc1ccccc1C(=O)O [aspirin],LDH released,human keratinocytes,68%
same,No. of keratinocytes,human keratinocytes,33%
O=C1O[C@H]([C@@H](O)CO)C(O)=C1O [Ascorbic acid],"EC50 in %, DPPH Test",[1],0.0013%
same,"EC50 in %, Luminol + microperoxydase",[2],0.0058%
same,"EC50 in %, NBT",NBT (biochemical test),0.5909%
same,"EC50 in %, Fenton's reaction",[3],0.1%
same,"EC50 in %, Luminol",xanthine oxidase,0.0006%
same,"LD50 in % (w/v), ATP","human fibroblasts [4]; human fibroblasts, 3 days, intracellular ATP content",0.0056 % (w/v)
same,"LD50 in % (w/v), Proteins","human fibroblasts [4]; human fibroblasts, 3 days, protein content (Bradford)",0.0055 % (w/v)
1′α1-Antitrypsin: natural elastase inhibitor used as positive standard,Elastase inhibition in %,elastase,68%
C[C@@H]1C[C@H]2[C@@H]3CCC4=CC(=O)C=C[C@]4(C)[C@@]3(F)[C@@H](O)C[C@]2(C)[C@@]1(O)C(=O)CO [Dexamethasone],TIMP-1 poured out,TIMP-1; [7],19 ng/mL
same,TIMP-1 poured out,TIMP-1; Without exposure to UV-A,39 ng/mL
same,MMP-1 poured out,MMP-1; [7],7 ng/mL
same,MMP-1 poured out,MMP-1; Without exposure to UV-A,2 ng/mL
CN(C)c1ccc(O)c2c1C[C@H]1C[C@H]3[C@H](N(C)C)C(O)=C(C(N)=O)C(=O)[C@@]3(O)C(O)=C1C2=O [Minocycline],No. of intact cells,[5]; in % by comparison with the control,100%
same,ROS content (%/control),[5]; zymosan-induced respiratory burst,28 %/control
tocopherol,"EC50 in %, DPPH Test",[1],0.0067%
same,"EC50 in %, Luminol + microperoxydase",[2],No effect up
same,"EC50 in %, NBT",NBT (biochemical test),No effect up
same,Cell proteins,human fibroblasts [6],97%
same,GSH/protein,human fibroblasts [6],78%
same,MDA released,human fibroblasts [6],11%
same,"EC50 in %, Luminol",xanthine oxidase,No effect up
same,"LD50 in % (w/v), ATP",human fibroblasts [4],Nt toxic up
same,"LD50 in % (w/v), Proteins",human fibroblasts [4],Not toxic up
"TIMP-1: MMP inhibitor occurring naturally in tissue, used as the comparison standard",MMP-1 Inhibition in %,human MMP-1,93%
